# Like-named read-outs stand apart in the source and are kept apart here. Starred links: 1 amine or outer side, 2 acyl side, 3 side chain; linkers in the order of their positions; H or OH if unused. Positions of bridges follow the written chain, without caps; N, C: chain ends. Non-standard residues stand in square brackets, D forms with d. Residues, ends and D or L forms follow the SMILES beside them. *: point of attachment. Butanoyl(4-(4-I-phenyl)) = O=C(CCCc1ccc(I)cc1)*; TBMB = c1c(C[*:1])cc(C[*:3])cc1C[*:2]; Benzoyl(3-I) = O=C(c1cccc(I)c1)*; 4Abz = Nc1ccc(C(=O)O)cc1
# Test: Biodistribution in U-87 MG tumor-bearing mice
# Format: in vivo, BALB/c nu-nu mice
# Conditions: male, BALB/c nu-nu, mouse, iv, 37 kBq, total radioactivity; for tissue uptake at 5 min: 5 min after i.v. administration; for tissue uptake at 5 min / tissue uptake at 0.5 h / tissue uptake at 1 h / tissue uptake at 2 h / tissue uptake at 6 h / tissue uptake at 12 h / tissue uptake at 24 h: U-87 MG-bearing mice, mean ± SD, n = 3; for tissue uptake at 0.5 h: 30 min after i.v. administration; for tissue uptake at 1 h: 1 h after i.v. administration; for tissue uptake at 2 h: 2 h after i.v. administration; for tissue uptake at 6 h: 6 h after i.v. administration; for tissue uptake at 12 h: 12 h after i.v. administration; for tissue uptake at 24 h: 24 h after i.v. administration
# How it was run: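 Male BALB/c nu/nu mice bearing subcutaneous U-87 MG (right leg), or also A549 (left leg), tumors ~10 mm; 37 kBq radiotracer given IV in PBS-0.1% Tween 80. Single-tumor mice sampled 5 min–24 h, co-implanted mice at 2 h (or 30 min–4 h for dimer); organ radioactivity counted by NaI scintillation, expressed as %ID/g.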
# [1] = U-87 MG tumor, read-out: Radioactivity in U-87 MG tumor
# [2] = blood, read-out: Radioactivity in blood
# [3] = bone, read-out: Radioactivity in bone
# [4] = brain, read-out: Radioactivity in brain
# [5] = heart, read-out: Radioactivity in heart
# [6] = kidneys, read-out: Radioactivity in kidneys
# [7] = large intestine, read-out: Radioactivity in large intestine
# [8] = liver, read-out: Radioactivity in liver
smiles,measurement,setting,value
N=C(N)NCCC[C@@H]1NC(=O)[C@H]2CSCc3cc(cc(c3)CSC[C@H](C(N)=O)NC(=O)[C@H](CC(=O)O)NC(=O)CNC1=O)CSC[C@H](NC(=O)CNC(=O)[C@H](CO)NC(=O)c1ccc(NC(=O)CNC(=O)[C@H](CO)NC(=O)[C@@H]3CCCN3C(=O)[C@@H]3CCCN3C(=O)[C@@H]3CCCN3C(=O)[C@H](CCCCNC(=O)c3cccc(I)c3)NC(=O)CCCc3ccc(I)cc3)cc1)C(=O)N[C@@H](Cc1c[nH]cn1)C(=O)N1CCC[C@H]1C(=O)N[C@@H](CCC(N)=O)C(=O)N2 [[^125I]bcRGDiba] ({Butanoyl(4-(4-I-phenyl))}-K(Benzoyl(3-I))PPPSG[4Abz]SGCHPQ[dC]RGD[dC]-NH2; linker 10-14-18 via TBMB),tissue uptake at 5 min,[1],2.2 ± 0.5 %ID/g
same,tissue uptake at 0.5 h,[1],3.4 ± 0.5 %ID/g
same,tissue uptake at 1 h,[1],3.6 ± 0.8 %ID/g
same,tissue uptake at 2 h,[1],3.6 ± 0.7 %ID/g
same,tissue uptake at 6 h,[1],2.9 ± 0.4 %ID/g
same,tissue uptake at 12 h,[1],1.4 ± 0.3 %ID/g
same,tissue uptake at 24 h,[1],0.5 ± 0.1 %ID/g
same,tissue to tissue ratio,"U-87 MG tumor/blood, all time points (5 min to 24 h)",< 1
same,tissue uptake at 5 min,[2],23.3 ± 2.9 %ID/g
same,tissue uptake at 0.5 h,[2],18.5 ± 1 %ID/g
same,tissue uptake at 1 h,[2],15.4 ± 1.2 %ID/g
same,tissue uptake at 2 h,[2],14 ± 1.5 %ID/g
same,tissue uptake at 6 h,[2],8.5 ± 1 %ID/g
same,tissue uptake at 12 h,[2],3.9 ± 0.7 %ID/g
same,tissue uptake at 24 h,[2],1.4 ± 0.1 %ID/g
same,tissue uptake at 5 min,[3],1.7 ± 0.3 %ID/g
same,tissue uptake at 0.5 h,[3],1.9 ± 0.6 %ID/g
same,tissue uptake at 1 h,[3],1.6 ± 0.4 %ID/g
same,tissue uptake at 2 h,[3],1.5 ± 0.3 %ID/g
same,tissue uptake at 6 h,[3],1.3 ± 0.1 %ID/g
same,tissue uptake at 12 h,[3],0.6 ± 0.2 %ID/g
same,tissue uptake at 24 h,[3],0.3 ± 0.1 %ID/g
same,tissue uptake at 5 min,[4],0.6 ± 0.2 %ID/g
same,tissue uptake at 0.5 h,[4],0.4 ± 0.1 %ID/g
same,tissue uptake at 1 h,[4],0.4 %ID/g
same,tissue uptake at 2 h,[4],0.3 %ID/g
same,tissue uptake at 6 h,[4],0.2 %ID/g
same,tissue uptake at 12 h,[4],0.1 %ID/g
same,tissue uptake at 5 min,[5],7.4 ± 1.4 %ID/g
same,tissue uptake at 0.5 h,[5],5.3 ± 0.5 %ID/g
same,tissue uptake at 1 h,[5],4.5 ± 0.8 %ID/g
same,tissue uptake at 2 h,[5],4.2 ± 0.1 %ID/g
same,tissue uptake at 6 h,[5],2.7 ± 0.2 %ID/g
same,tissue uptake at 12 h,[5],1.3 ± 0.1 %ID/g
same,tissue uptake at 24 h,[5],0.5 %ID/g
same,tissue uptake at 5 min,[6],7.8 ± 0.5 %ID/g
same,tissue uptake at 0.5 h,[6],7.1 ± 1.4 %ID/g
same,tissue uptake at 1 h,[6],7.3 ± 0.4 %ID/g
same,tissue uptake at 2 h,[6],5.5 ± 0.3 %ID/g
same,tissue uptake at 6 h,[6],3.9 ± 0.4 %ID/g
same,tissue uptake at 12 h,[6],1.8 ± 0.1 %ID/g
same,tissue uptake at 24 h,[6],0.8 ± 0.1 %ID/g
same,tissue uptake at 5 min,[7],1.5 ± 0.7 %ID/g
same,tissue uptake at 0.5 h,[7],1 ± 0.1 %ID/g
same,tissue uptake at 1 h,[7],1 ± 0.1 %ID/g
same,tissue uptake at 2 h,[7],7.1 ± 2 %ID/g
same,tissue uptake at 6 h,[7],11.3 ± 2 %ID/g
same,tissue uptake at 12 h,[7],3.4 ± 1 %ID/g
same,tissue uptake at 24 h,[7],2.2 ± 0.2 %ID/g
same,tissue uptake at 5 min,[8],7.6 ± 0.5 %ID/g
same,tissue uptake at 0.5 h,[8],6.9 ± 0.2 %ID/g

# Reference: publication PMC12030627, “Radioiodinated Bicyclic RGD Peptide Derivatives for Enhanced Tumor Accumulation” (Pharmaceuticals, 2025)
